This is an account of results in US9090608B2, “Pharmaceutical composition for preventing or treating osteoporosis or obesity comprising phenyltetrazole derivative” (KOREA RESEARCH INSTITUTE OF CHEMICAL TECHNOLOGY, priority 2009, dated 2015).

What all share (format): cell-based
In one experiment the test system is RUNX2. The experiment is described as follows: TAZ activity of stimulating RUNX2 function (6xOSE-luc reporter in 293T cells). As to conditions: for activity at 10 µM: Homo sapiens, HEK-293T, 24 hours, 293T cells, percentage based on non-treated control cells, read-out: Activity (%): osteocalcin promoter activity; for Additional stimulating activity on TAZ stimulation of RUNX2: 10 μM, considered additional when value exceeds 570% of the average increase by protein TAZ. The method, then:
Introduced in 293T cells were introduced RUNX2 and TAZ expression vector together with 6×OSE-luc (osteocalcin-specific element linked to luciferase, six copies of RUNX2-binding site in the osteocalcin promoter linked to luciferase) [Hong et al., Science 2005; 309:1074-8]. This test was for an evaluation of an activity of the inventive compounds in stimulating the luciferase activity which increases when RUNX2 binds to TAZ.
After 24 hours, the cells were treated with each of the inventive compounds to a concentration of 10 μM and then further cultivated for 24 hours. The procedure of Test 2 was repeated to extract the cell protein, and then reporter gene analysis was conducted to quantify the effect of the inventive compounds on the TAZ activity in stimulating RUNX2. For comparing the transformation efficaciency, β-galactosidase expression vector (pCMVβ) was introduced to 293T cells and the β-galactosidase activity was measured for calibration.
The osteocalcin promoter activity was analyzed in percentage term based on that of non-treated cells in a control group. When the value exceeds 570% of the average increase by protein TAZ, the compound was considered to have an additional stimulating activity.

For another experiment, the target named is T1, protein TAZ (Homo sapiens, UniProt Q9GZV5).
T1 construct: introducing full length TAZ cDNA synthesized by PCR method into vector pEGFP; expressed in transfected cells
The experiment is described as follows: Stimulating TAZ protein migration toward nucleus (GFP-TAZ high-content imaging). As to conditions: 0.5 h, after 30 minutes, Cos cells, percentage based on non-treated control cells, read-out: Expression (%): GFP expression of protein TAZ in the nucleus. The protocol:
Vector pEGFP-TAZ in which GFP (green fluorescence protein) is linked to protein TAZ was prepared, and nucleus specific histone protein (RFP-H2B) expression vector having introduced RFP (red fluorescence protein) therein was prepared. The vector pEGFP-TAZ was prepared by introducing full length TAZ cDNA synthesized by PCR method into vector pEGFP (Invitrogen, Carlsbad, Calif., USA) and then cloning. The expression vector RFP-H2B was prepared by introducing full length histone H2B cDNA into expression vector RFP (Clontech Laboratories, Inc., Palo Alto, Calif., USA) and then cloning.
Cos? cells (ATCC, Manassas, Va.) were distributed to each well of a 96-well plate (5×10^3 cells/well) and stabilized, and then vectors pEGFP-TAZ and RFP-H2B were introduced into the cells by employing Effectene™ (Qiagen). After 48 hours, the cells were treated with each of the inventive compounds to a concentration of 10 μM. After 30 minutes, the movement of green fluorescent color toward the cell nucleus was observed continually by employing BD Pathway™ high-content bioimager (BD bioscience). Using a quantification program (BD IPLab™ for Pathway and BD™ Image Data Explorer), GFP expression in the nucleus of RFP-expressed cells was quantified.
GFP expressions of protein TAZ in the nucleus were analyzed and calculated in percentage term based on that of non-treated cells in a control group, which are shown in Table 3.

For another experiment, the system named is 3T3-L1 preadipocytes. Description: Differentiation of 3T3-L1 cells into adipocytes (Oil-red O staining). As to conditions: for Inhibition of adipocyte differentiation (Oil-red O staining): compound added at each medium replacement, after 8 days. The method, then: 3T3-L1 preadipocytes (ATCC CL-173) were dispersed in a DMEM medium comprising 10% FBS (fatal bovine serum , and then confluently cultivated for 48 hours in a 24-well plate (3×10^4 cells/well). 2 μM rosiglitazone, 5 μg/mL insulin, and 1 μM dexamethasone were added thereto to induce adipocyte differentiation.
After 48 hours, the medium was replaced with a DMEM comprising 5 μg/mL insulin and 10% FBS (fatal bovine serum), and 48 hours later, the medium was replaced with a DMEM comprising 10% FBS. Then, the medium was replaced every 48 hours to evaluate adipocyte differentiation. The inventive compounds were each added during the replacement of the medium. After 8 days, the cells were fixed with 10% formalin, and Oil-red O staining was conducted to confirm adipocytes generated in cells.

Another experiment concerns PPARγ. Description: TAZ activity of inhibiting PPARγ function (aP2-luc reporter in 293T cells). As to conditions: Homo sapiens, HEK-293T, 24 h, percentage based on inhibitory effect in non-treated control cells, read-out: Increased inhibition (%) of aP2 promoter activity. The source says:
293T cells (ATCC) were placed in the wells of a 48-well plate (1×10^5 cells/well) and stabilized. Introduced to the cells were PPARγ and TAZ expression vectors together with vectors aP2-luc (adipose fatty acid binding protein 2 promoter linked to luciferase) and pCMVβ Hong et al., Science 2005; 309:1074-8]. For observing the effect on transcription activation of the target gene by the PPARγ or TAZ protein expression, aP2-luc reporter gene was also introduced into the cells. For calibration of the introduction efficiency in cells, vector pCMVβ was introduced in cells in same amounts and the β-galactosidase activity was measured to calibrate the luciferase activity.
After 24 hours, the cells were treated with each of the inventive compounds to a concentration of 10 μM and then further cultivated for 24 hours. Proteins of the resulting cells were extracted with a lysis solution comprising NP-40, and thus luciferase activity was measured (Promega, Sunnyvale, Calif., USA).
Increased inhibitory effect on the aP2 promoter activity was analyzed and the results were calculated in percentage term based on the inhibitory effect on the aP2 promoter activity observed for the non-treated cells in a control group.

In the next experiment the test system is C3H10T1/2 cells. Description: Differentiation of C3H10T1/2 cells into osteoblasts (Alizarin red S staining). As to conditions: 10 μM, after 20 days. The method, then:
C3H10T1/2 cells (ATCC CCL 226) were diluted in a α-MEM medium comprising 10% FBS, cultivated in a 96-well plate (1×10^4 cells/well) for 48 hours, and the medium was replaced every 48 hours to observe the osteoblast differentiation. On the initiation of differentiation, the medium was treated with 10 μM of each of the inventive compounds.
After 20 days, the cells were fixed with 70% ethanol and stained with an Alizarin red S solution to confirm increased calcium in osteocytes. In the Alizarin red staining test, the degrees of osteoblast differention can be identified by the intensity of red color.

T1 sequence (Q9GZV5 whole entry): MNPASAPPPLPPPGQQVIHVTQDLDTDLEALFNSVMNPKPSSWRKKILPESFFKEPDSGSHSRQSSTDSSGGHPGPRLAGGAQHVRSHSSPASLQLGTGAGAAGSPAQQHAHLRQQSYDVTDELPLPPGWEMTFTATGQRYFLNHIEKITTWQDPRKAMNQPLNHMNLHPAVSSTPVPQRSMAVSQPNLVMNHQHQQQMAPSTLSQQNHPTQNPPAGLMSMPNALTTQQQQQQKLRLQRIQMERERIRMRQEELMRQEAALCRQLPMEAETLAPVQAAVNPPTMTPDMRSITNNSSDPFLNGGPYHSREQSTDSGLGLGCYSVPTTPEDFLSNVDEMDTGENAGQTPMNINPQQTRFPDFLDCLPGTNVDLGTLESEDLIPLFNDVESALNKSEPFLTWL

As usually defined, the inhibition is the drop in the measured response relative to a control, in per cent. As for `CCCCc1nc2cc(C(O)c3ccccc3)c(C(OC)OC)nc2n1Cc1ccc(-c2ccccc2-c2nnnn2C(C)OCC)cc1` (centres unmarked) [VII, (2-butyl-5-dimethoxymethyl-3-{2′-[1-(1-ethoxyethyl)-1H-tetrazol-5-yl]biphenyl-4-ylmethyl}-3H-imidazo[4,5-b]pyridin-6-yl)phenylmethanol], the activity at 10 µM in the experiment on RUNX2 amounted to 476%; on protein TAZ it was 160%. Moreover, the “Inhibition of adipocyte differentiation at a higher concentration” value in the experiment with 3T3-L1 preadipocytes (treating at a higher concentration) is recorded as “markedly increased inhibitory effect”. For the same molecule, the inhibition at 10 µM with PPARγ turned out to be 46.7%.

Turning to `CCCCc1nc2cc(C(O)c3ccccc3)c(C(OC)OC)nc2n1Cc1ccc(-c2ccccc2-c2nnn[nH]2)cc1` (centres unmarked) [VIII, {2-butyl-5-dimethoxymethyl-3-[2′-(1H-tetrazol-5-yl)biphenyl-4-ylmethyl]-3H-imidazo[4,5-b]pyridin-6-yl}phenylmethanol], in the experiment on RUNX2, the “Additional stimulating activity on TAZ stimulation of RUNX2” value (from here on “Additional stimulating activity”) is on record as “additional stimulating activity was observed” and the activity at 10 µM came out at 688%. The inhibition at 10 µM with PPARγ is over 60%.

In the case of `CCCCc1nc2cc(/C=C/c3ccccc3)c(C(=O)OC)cc2n1Cc1ccc(-c2ccccc2-c2nnn[nH]2)cc1` [XIII, methyl 2-butyl-5-styryl-1-[2′-(1H-tetrazol-5-yl)biphenyl-4-ylmethyl]-1H-benzimidazol-6-carboxylate], the activity at 10 µM with RUNX2 turned out to be 569%. In addition, in the experiment on PPARγ, the inhibition at 10 µM turned out to be 39.9%.

For `CCCCc1nc2c(C)cc(CO)nc2n1Cc1ccc(-c2ccccc2-c2nnn[nH]2)cc1` [V, {2-butyl-7-methyl-3-[2′-(1H-tetrazol-5-yl)biphenyl-4-ylmethyl]-3H-imidazo[4,5-b]pyridin-5-yl}methanol], the results for the activity at 10 µM in the experiment on RUNX2 and on protein TAZ were 468% and 151%, respectively. The “Stimulation of osteoblast differentiation (Alizarin red staining)” value in the experiment on C3H10T1/2 cells is “osteoblast differentiation was stimulated”. Moreover, the inhibition at 10 µM in the experiment on PPARγ came out at 32.3%.

Turning to `CCCCc1nc2cc(Br)c(COC(C)=O)nc2n1Cc1ccc(-c2ccccc2-c2nnn[nH]2)cc1` [X, 6-bromo-2-butyl-3-[2′-(1H-tetrazol-5-yl)biphenyl-4-ylmethyl]-3H-imidazo[4,5-b]pyridin-5-ylmethyl acetate], in the experiment with RUNX2, the “Additional stimulating activity” value was “additional stimulating activity was observed” and the activity at 10 µM amounted to 672%. In addition, the inhibition at 10 µM in the experiment with PPARγ came to 57.5%.

As for `CCCCc1nc2cc(Br)c(COC(C)=O)nc2n1Cc1ccc(-c2ccccc2-c2nnnn2C(C)OCC)cc1` (centres unmarked) [IX, 6-bromo-2-butyl-3-{2′-[1-(1-ethoxyethyl)-1H-tetrazol-5-yl]biphenyl-4-ylmethyl}-3H-imidazo[4,5-b]pyridin-5-ylmethyl acetate], in the experiment with RUNX2, the “Additional stimulating activity” value is listed as “additional stimulating activity was observed” and the activity at 10 µM is 676%. At protein TAZ, the activity at 10 µM is 147%. For the same molecule, the inhibition at 10 µM in the experiment with PPARγ is 22.7%.

Regarding `CCCCc1nc2cc(-c3cccnc3)c(C)nc2n1Cc1ccc(-c2ccccc2-c2nnn[nH]2)cc1` [III, 2-butyl-5-methyl-6-pyridin-3-yl-3-[2′-(1H-tetrazol-5-yl)biphenyl-4-ylmethyl]-3H-imidazo[4,5-b]pyridine], the activity at 10 µM with RUNX2 worked out at 259%; at protein TAZ, 157%. Also, the “Stimulation of osteoblast differentiation (Alizarin red staining)” value in the experiment on C3H10T1/2 cells is listed as “osteoblast differentiation was stimulated”. For the same molecule, in the experiment with 3T3-L1 preadipocytes, the “Inhibition of adipocyte differentiation (Oil-red O staining)” value is “adipocyte differentiation was inhibited”. Moreover, the inhibition at 10 µM in the experiment with PPARγ was over 60%.

As to `CCCCc1nc2cc(C(=O)OC)c(/C=C/c3ccccc3)cc2n1Cc1ccc(-c2ccccc2-c2nnn[nH]2)cc1` [XII, methyl 2-butyl-6-styryl-1-[2′-(1H-tetrazol-5-yl)biphenyl-4-ylmethyl]-1H-benzimidazol-5-carboxylate], the results for the activity at 10 µM with RUNX2 and on protein TAZ were 296% and 149%, respectively. Further, in the experiment on 3T3-L1 preadipocytes, the “Inhibition of adipocyte differentiation (Oil-red O staining)” value is recorded as “adipocyte differentiation was inhibited”. The inhibition at 10 µM in the experiment with PPARγ is over 60%.

In the case of `CCCCc1nc2cc(-c3ccccn3)c(C(=O)OC)nc2n1Cc1ccc(-c2ccccc2-c2nnn[nH]2)cc1` [IV, methyl 2-butyl-6-pyridin-2-yl-3-[2′-(1H-tetrazol-5-yl)biphenyl-4-ylmethyl]-3H-imidazo[4,5-b]pyridine-5-carboxylate], the activity at 10 µM was determined as 463% in the experiment on RUNX2 and 135% on protein TAZ. In the experiment with 3T3-L1 preadipocytes, the “Inhibition of adipocyte differentiation (Oil-red O staining)” value is recorded as “adipocyte differentiation was inhibited”.

Turning to `CCc1nc2c(C)cc(CO)nc2n1Cc1ccc(-c2ccccc2-c2nnn[nH]2)cc1` [II, {2-ethyl-7-methyl-3-[2′-(1H-tetrazol-5-yl)biphenyl-4-ylmethyl]-3H-imidazo [4,5-b]pyridin-5-yl}methanol], the activity at 10 µM is 473% in the experiment with RUNX2 and 130% at protein TAZ. In addition, in the experiment with PPARγ, the inhibition at 10 µM is 43.2%.

As for `CCCCc1nc2cc(-c3cccc[n+]3[O-])c(CF)nc2n1Cc1ccc(-c2ccccc2-c2nnn[nH]2)cc1` [VI, 2-butyl-5-fluoromethyl-6-(1-oxypyridin-2-yl)-3-[2′-(1H-tetrazol-5-yl)biphenyl-4-ylmethyl]-3H-imidazo[4,5-b]pyridine], the activity at 10 µM stood at 483% in the experiment on RUNX2 and 132% on protein TAZ. Moreover, the inhibition at 10 µM in the experiment with PPARγ was found to be 51.3%.

Turning to `CCCCc1nc2c(C)c(-c3ccccc3)c(COCSC)nc2n1Cc1ccc(-c2ccccc2-c2nnn[nH]2)cc1` [XI, 2-butyl-7-methyl-5-((methylsulfanylmethoxy)methyl)-6-phenyl-3-[2′-(1H-tetrazol-5-yl)biphenyl-4-ylmethyl]-3H-imidazo[4,5-b]pyridine], in the experiment on RUNX2, the “Additional stimulating activity” value is on record as “additional stimulating activity was observed” and the activity at 10 µM amounted to 754%. The activity at 10 µM at protein TAZ came to 134%.
